Assay results: patent US20100076194A1, “SUBSTITUTED 3-AMINO-1-OXO OR THIOXO-1,2,5,6,7,8-HEXAHYDRO-2,7-NAPHTHYRIDINE-4-CARBONITRILES ARE SELECTIVE ALPHA 2B ANTAGONISTS” (ALLERGAN, INC., priority 2008, published 2010)
Like-named read-outs stand apart in the source and are kept apart here.

Legend:
[1] = target: T1, mouse alpha2B receptor (Mus musculus, UniProt P30545); assay: FLIPR Ca+2 influx antagonist assay, alpha 2B; format: cell-based; conditions: for % Antagonism Alpha 2B: value in parentheses
T1 construct: expressed in transfected cells; host or cells: HEK 293
T1 sequence (P30545 1-453): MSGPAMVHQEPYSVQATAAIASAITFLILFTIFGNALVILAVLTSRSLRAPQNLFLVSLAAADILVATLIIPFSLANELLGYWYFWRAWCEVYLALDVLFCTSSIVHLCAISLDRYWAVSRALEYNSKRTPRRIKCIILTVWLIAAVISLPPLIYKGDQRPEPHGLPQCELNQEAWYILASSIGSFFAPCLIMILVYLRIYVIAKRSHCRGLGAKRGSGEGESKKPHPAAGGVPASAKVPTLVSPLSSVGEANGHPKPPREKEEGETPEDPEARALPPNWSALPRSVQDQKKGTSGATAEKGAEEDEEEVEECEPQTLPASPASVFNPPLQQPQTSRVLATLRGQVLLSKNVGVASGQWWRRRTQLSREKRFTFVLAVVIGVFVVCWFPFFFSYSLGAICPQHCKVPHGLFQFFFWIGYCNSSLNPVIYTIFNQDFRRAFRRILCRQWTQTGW
Protocol: (§1) HEK 293 cells stably expressing the human alpha 2A receptor and the chimeric G protein Gqi5, the mouse alpha2B receptor and the G protein G16, and the human alpha 2C receptor and the chimeric G protein Gqi5 are plated in poly-D-lysine coated 96-well plates at 50,000-75,000 cells per well and grown overnight in DMEM supplemented with 10% fetal bovine serum. For FLIPR (fluorometric image plate reader) evaluation, cells are washed twice with HBSS/HEPES Buffer (1× Hanks Buffered Salt Solution, 20 mM HEPES, pH 7.4) prior to the addition of Fluo-4-AM (4 uM Fluo-4-AM, 0.04% pluronic acid in HBSS/HEPES Buffer), a calcium-sensitive dye. Cells are loaded with dye for 60 minutes at 37° C., then washed 4 times with HBSS/HEPES Buffer. For both the agonist and antagonist assay, the test compounds are tested between 0.64 nM-10,000 nM.
(§2) However, the antagonist blocks the transient calcium signal of the standard agonist norepinephrine in a dose-dependent manner. The residual norepinephrine peak height is compared to the non-antagonized norepinephrine peak height for the determination of % antagonism.

[2] = target: T2, human alpha 2A receptor (Homo sapiens, UniProt P08913); assay: FLIPR Ca+2 influx antagonist assay, alpha 2A; format: cell-based; conditions: HEK 293 cells, Gqi5; for IC50: antagonism of norepinephrine calcium signal; for % Antagonism Alpha 2A: value in parentheses
T2 construct: expressed in transfected cells; host or cells: HEK 293
T2 sequence (P08913 1-465): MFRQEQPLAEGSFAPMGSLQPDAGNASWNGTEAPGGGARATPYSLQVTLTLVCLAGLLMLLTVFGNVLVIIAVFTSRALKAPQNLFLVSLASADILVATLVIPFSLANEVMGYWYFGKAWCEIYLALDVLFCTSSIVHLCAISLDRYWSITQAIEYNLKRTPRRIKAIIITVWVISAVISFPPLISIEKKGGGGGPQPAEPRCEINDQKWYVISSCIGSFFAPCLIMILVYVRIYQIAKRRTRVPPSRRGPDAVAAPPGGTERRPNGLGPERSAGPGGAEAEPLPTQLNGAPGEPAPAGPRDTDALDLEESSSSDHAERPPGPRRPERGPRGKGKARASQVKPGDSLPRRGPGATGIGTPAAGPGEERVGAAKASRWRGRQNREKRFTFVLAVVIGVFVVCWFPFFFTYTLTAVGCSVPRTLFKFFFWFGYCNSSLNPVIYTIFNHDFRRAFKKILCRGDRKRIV
Protocol: as §1, §2

[3] = target: T3, human alpha 2C receptor (Homo sapiens, UniProt P18825); assay: FLIPR Ca+2 influx antagonist assay, alpha 2C; format: cell-based; conditions: HEK 293 cells, Gqi5; for % Antagonism Alpha 2C: value in parentheses
T3 construct: expressed in transfected cells; host or cells: HEK 293
T3 sequence (P18825 1-462): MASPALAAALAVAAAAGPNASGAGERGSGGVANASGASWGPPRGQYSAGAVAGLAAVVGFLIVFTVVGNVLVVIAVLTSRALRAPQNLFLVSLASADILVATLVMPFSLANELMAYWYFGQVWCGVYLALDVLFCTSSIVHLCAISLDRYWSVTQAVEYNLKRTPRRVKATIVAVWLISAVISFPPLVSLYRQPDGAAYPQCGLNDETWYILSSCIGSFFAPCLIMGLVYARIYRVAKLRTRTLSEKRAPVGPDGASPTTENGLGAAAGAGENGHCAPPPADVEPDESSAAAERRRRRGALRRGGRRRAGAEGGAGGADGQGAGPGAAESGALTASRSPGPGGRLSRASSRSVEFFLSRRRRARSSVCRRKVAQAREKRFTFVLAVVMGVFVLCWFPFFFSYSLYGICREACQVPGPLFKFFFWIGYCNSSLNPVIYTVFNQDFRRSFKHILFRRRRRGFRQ
Protocol: as §1, §2

[4] = target: T4, Alpha 1B adrenergic receptor (Homo sapiens, UniProt P35368); assay: FLIPR Ca+2 influx antagonist assay, alpha 1B; format: cell-based; conditions: for % Antagonism Alpha 1B: value in parentheses, vs norepinephrine peak height
T4 sequence (P35368 1-520): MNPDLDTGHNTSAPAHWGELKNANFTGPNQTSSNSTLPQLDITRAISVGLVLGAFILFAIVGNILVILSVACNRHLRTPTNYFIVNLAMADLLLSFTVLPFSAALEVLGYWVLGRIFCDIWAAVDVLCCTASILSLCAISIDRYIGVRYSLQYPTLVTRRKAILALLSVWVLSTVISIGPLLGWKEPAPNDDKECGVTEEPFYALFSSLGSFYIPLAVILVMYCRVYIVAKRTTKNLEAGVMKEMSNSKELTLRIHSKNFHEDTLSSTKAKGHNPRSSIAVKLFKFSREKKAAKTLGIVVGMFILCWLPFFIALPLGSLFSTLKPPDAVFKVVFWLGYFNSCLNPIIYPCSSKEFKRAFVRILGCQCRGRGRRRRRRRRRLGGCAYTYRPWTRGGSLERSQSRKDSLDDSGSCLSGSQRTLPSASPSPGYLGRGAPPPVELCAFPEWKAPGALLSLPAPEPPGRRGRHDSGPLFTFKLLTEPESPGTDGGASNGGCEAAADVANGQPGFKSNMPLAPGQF

[5] = target: T5, Alpha 1A adrenergic receptor (Homo sapiens, UniProt P35348); assay: FLIPR Ca+2 influx antagonist assay, alpha 1A; format: cell-based; conditions: for % Antagonism Alpha 1A: value in parentheses, vs norepinephrine peak height
T5 sequence (P35348 1-466): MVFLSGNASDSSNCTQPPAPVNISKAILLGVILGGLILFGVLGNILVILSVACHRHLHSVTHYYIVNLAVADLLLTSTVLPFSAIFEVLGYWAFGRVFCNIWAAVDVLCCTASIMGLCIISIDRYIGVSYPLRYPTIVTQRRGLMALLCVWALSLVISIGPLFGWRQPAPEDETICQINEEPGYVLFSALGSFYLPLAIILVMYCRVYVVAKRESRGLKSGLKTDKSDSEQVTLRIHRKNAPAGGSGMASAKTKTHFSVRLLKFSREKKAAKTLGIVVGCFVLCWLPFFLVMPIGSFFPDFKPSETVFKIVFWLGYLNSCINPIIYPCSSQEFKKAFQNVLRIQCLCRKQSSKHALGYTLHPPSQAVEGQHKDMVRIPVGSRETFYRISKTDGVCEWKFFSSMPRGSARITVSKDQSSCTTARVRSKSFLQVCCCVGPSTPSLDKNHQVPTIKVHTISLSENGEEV

[6] = tested on: mechanical allodynia; assay: Chung rat nerve ligation model of neuropathic pain (mechanical allodynia); format: in vivo; conditions: co-administered IP at 100 ug/kg each, 30 minutes post drug, FIG. 1A
Protocol: The Chung model is a surgical model of neuropathic pain in rats. The pain state is generated by tight ligation of the L5 and L6 spinal nerves on one side of the rat. The surgical procedure results in a long-lasting mechanical allodynia in the affected foot. Mechanical allodynia is measured using von Frey filaments, where the investigator stimulates the plantar surface of the affected foot. Different sized filaments generate a different force. A painful response is signified by withdrawal of the paw.
Mechanical allodynia is measured at 30 minutes post drug and is reported as the percentage response to the baseline reading taken pre-drug administration.
The lack of allodynial reversal in these rats is also a measure of antagonist ability to block a response.

[7] = HEK 293 cells, G16, antagonism of norepinephrine calcium signal, read-out: IC50 Alpha 2B

CCn1c(N)c(C#N)c2c(c1=S)CN(C)CC2 [Example 8, 3-Amino-2-ethyl-4-cyano-7-methyl-(1,2,5,6,7,8-hexahydro-2,7-napthyridine-1-thione)]
IC50 [1, 7]: 0.473 µM
% Antagonism Alpha 2B ([1]; HEK 293 cells, G16): 95%

CN1Cc2c(c(C#N)c(N)n(N)c2=S)CC1(C)C [Example 7, 2,3-diamino-4-cyano-6,6,7-trimethyl-(1,2,5,6,7,8-hexahydro-2,7-napthyridine-1-thione)]
IC50 [2]: > 7.5 µM
% Antagonism Alpha 2A [2]: 0%
% Antagonism Alpha 2C [3]: nd (17) %
IC50 [4]: > 7.5 µM
% Antagonism Alpha 1B [4]: 16%
IC50 [5]: 0.382 µM
% Antagonism Alpha 1A [5]: 98%
IC50 [1]: 0.029 µM
% Antagonism Alpha 2B ([1]; HEK 293 cells, G16): 97%

CN1CCc2c(C#N)c(N)n(N)c(=S)c2C1 [Example 6, 2,3-diamino-4-cyano-7-methyl-(1,2,5,6,7,8-hexahydro-2,7-napthyridine-1-thione)]
% Antagonism Alpha 2A [2]: nd (36) %
IC50 ([3]; antagonism of norepinephrine calcium signal): 1.41 µM
% Antagonism Alpha 2C [3]: 29%
IC50 ([4]; antagonism of norepinephrine calcium signal, read-out: IC50 Alpha 1B): > 7.5 µM
% Antagonism Alpha 1B [4]: 19%
IC50 ([5]; antagonism of norepinephrine calcium signal, read-out: IC50 Alpha 1A): > 7.5 µM
% Antagonism Alpha 1A [5]: 19%
IC50 [1, 7]: 0.204 µM
% Antagonism Alpha 2B ([1]; HEK 293 cells, G16): 112%

CN1CCc2c(C#N)c(N)n(C)c(=O)c2C1 [Example 9, 3-Amino-2-methyl-4-cyano-7-methyl-(1,2,5,6,7,8-hexahydro-2,7-napthyridine-1-ketone)]
IC50 [1, 7]: 1.17 µM
% Antagonism Alpha 2B ([1]; HEK 293 cells, G16): 88%

CN1CCc2c(C#N)c(N)n(C)c(=S)c2C1 [Example 5, 3-amino-2,7-dimethyl-1-thioxo-1,2,5,6,7,8-hexahydro-2,7-naphthyridine-4-carbonitrile]
IC50 [2]: 1.99 µM
% Antagonism Alpha 2A [2]: 69%
% Antagonism Alpha 2C [3]: nd (25) %
block of allodynia reversal by 4-Cyclopent-3-enylmethyl-1,3-dihydro-imidazole-2-thione [6]: completely blocks
IC50 [4]: > 8.3 µM
% Antagonism Alpha 1B [4]: 0%
% Antagonism Alpha 1A [5]: nd (64) %
IC50 [1]: 0.01 µM
% Antagonism Alpha 2B ([1]; HEK 293 cells, G16): 95%

Cn1c(N)c(C#N)c2c(c1=S)CNCC2 [Example 4, 3-amino-2-methyl-1-thioxo-1,2,5,6,7,8-hexahydro-2,7-naphthyridine-4-carbonitrile]
IC50 [1, 7]: 0.342 µM
% Antagonism Alpha 2B ([1]; HEK 293 cells, G16): 93%
